The text below walks through data of publication PMC7024345 (Molecules, 2020).

In data set [1] the target is T1, eqBChE (BChE from equine serum) (Equus caballus, UniProt P81908).
T1 construct: BChE from equine serum (eqBChE); purchased Sigma-Aldrich (St. Louis, MO, USA); host or cells: equine serum
The data set can be described thus: biochemical. The method, then:
(§1) Acetylcholinesterase and butyrylcholinesterase inhibitory activities of the compounds under study were evaluated spectrophotometrically following Ellman’s method using AChE from electrophorus electricus (eeAChE) and BChE from equine serum (eqBChE). The lyophilized enzymes were dissolved in sodium phosphate buffer (0.25 M, pH 7.4) to make a stock solution of eeAChE (1000 U/mL) or eqBChE (25 U/mL). […] Briefly, in each well, 100 μL of phosphate buffer, 40 μL of DTNB, 20 μL of the tested compounds (100 µM solution dissolved in 0.1% DMSO and phosphate buffer) and 20 μL of cholinesterase solution were pre-incubated in a 96-well microplate for 5 min at 30 °C. […] The rate of the reaction before adding the enzyme was subtracted from that obtained after enzyme addition in order to correct for spontaneous hydrolysis of substrate.

For data set [2], the target named is T2, eeAChE (AChE from electrophorus electricus) (Electrophorus electricus, UniProt O42275).
T2 construct: purchased Sigma-Aldrich (St. Louis, MO, USA)
The experiment in a line: biochemical. Particulars: for IC50: Ellman's method, ATCI substrate, 30 °C; for fold enhancement of eeAChE inhibitory activity: 10 carbon linker compound compared to 6 carbon linker analogue (compounds 3 and 4). The class given is biochemical. On the procedure:
as §1
On the technique in general: Ellman's reagent forms a yellow product with free thiols.

Data set [3] can be described thus: Chemical stability observation. The class given is physicochemical. From the text:
Accordingly, these two compounds were selected for the study as protective agents against glutamate, iron(III) and Aβ42.

The test system of data set [4] is differentiated SH-SY5Y cells. The data set can be described thus: Neuroprotection against iron(III), MTT reduction. Particulars: mean ± SD; for MTT reduction: 30 min pre-treatment, then iron(III) 1 mM 24 h; for MTT reduction, aggressor alone: iron(III) 1 mM, 24 h. The class given is cell-based, human. The method, then:
(§2) After 30 min of pre-treatment with Compounds 7 (10 and 50 µM) and 11 (10 µM), the cells were exposed to different aggressors, described above, for 24 h.
(§3) Figure 6 Evaluation of the protective effects of Compounds 7 (10 and 50 µM) and 11 (10 µM) in SH-SY5Y cells against glutamate (16 mM, A), iron(III) (1 mM, B) and Aβ42 (25 µM, C) as oxidative stress inducers. The cells were pre-treated with antioxidants for 30 min and exposed to the aggressors for 24 h. The data are expressed as the means of three independent experiments together with the standard deviation (Mean ± SD). Statistical comparisons were estimated using the nonparametric method of Kruskal–Wallis [one-way ANOVA on ranks] followed by Dunn’s post hoc test (A,B) and using the parametric method of one-way analysis of variance (ANOVA) followed by Dunnett’s multiple comparison test (C, F = 364.2) (Supplementary Table S2). In all cases, p values lower than 0.05 were considered significant (^## p < 0.05, ^#### p < 0.0001 vs. control data; ** p < 0.01, *** p < 0.001, **** p < 0.0001 vs. aggressor values).
(§4) Differentiated human neuroblastoma cells were routinely cultured into […] flasks and maintained in DMEM high glucose (4.5 g/L glucose), supplemented with 10% heat-inactivated FBS (v/v), 1% NEAA (v/v) and 1% penicillin/streptomycin (v/v). The cell cultures were maintained at 37 °C in a humidified 5% CO2–95% air atmosphere and passaged once a week by trypsinization (0.25% trypsin). Neuroblastoma SH-SY5Y cells were seeded onto 96 well plates at a density of 25,000 cells/cm^2 in cell culture medium with trans-retinoic acid (RA, final concentration of 10 µM) and incubated for three days at 37 °C in a humidified, 5% CO2–95% air atmosphere. Then, the medium was supplemented with 12-O-tetradecanoylphorbol-13-acetate (TPA, final concentration of 80 nM), and cells were incubated for three days. Stock solutions of RA (10 mM) and TPA (160 µM) were prepared in DMSO. To avoid phenotypic changes, the cells used for all experiments were taken between the 19th and 28th passages.
(§5) The neuroprotective efficacy of mitochondriotropic antioxidants 7 and 11 was evaluated in a cell-based assay against diverse oxidative stress inducers. Briefly, SH-SY5Y cells were pre-treated with Compounds 7 and 11 followed by incubation with the well-described aggressors that play a role in AD progression, namely Aβ-amyloid 1-42 (Aβ42), ferric nitrilotriacetate (FeNTA) and glutamic acid. Differentiated SH-SY5Y cells were pre-treated with the test compounds 7 (10 and 50 µM) and 11 (10 µM) for 30 min. Then, a culture medium containing Aβ42 (25 µM), iron(III) (1 mM) or glutamic acid (16 mM) was added, and cells were incubated for additional 24 h. A negative control (cells treated with culture medium containing DMSO 0.1%) and a positive control (cells treated with culture medium containing DMSO 0.1%, followed by treatment with aggressors) were also included. Cell viability was estimated using the MTT reduction assay, as described by Fernandes et al..

The subject of data set [5] is differentiated SH-SY5Y cells. The data set can be described thus: Neuroprotection against Aβ42, MTT reduction. The class given is cell-based, human. Particulars: mean ± SD; for MTT reduction: 30 min pre-treatment, then Aβ42 25 µM 24 h; for MTT reduction, aggressor alone: Aβ42 25 µM, 24 h. On the procedure: as §2, §3, §4, §5
In data set [6] the test system is differentiated SH-SY5Y cells. The experiment in a line: Neuroprotection against glutamate, MTT reduction. The class given is cell-based, human. Particulars: mean ± SD; for MTT reduction: 30 min pre-treatment, then glutamate 16 mM 24 h; for MTT reduction, aggressor alone: glutamate 16 mM, 24 h. On the procedure: as §2, §3, §4, §5
For orientation: Formazan colour is commonly taken as a measure of viable cells.

The test system of data set [7] is SH-SY5Y cells. Also noted: method as in PMID 30784884. Particulars: at 50 µM; cited from earlier work.
[8] abbreviates: Ellman's method, BTCI substrate, 30 °C, read-out: IC50 eqBChE, mean (CI 95%).
Setting [9] is: read-out: IC50 eeAChE, mean (CI 95%).

Where “and” joins values, the source holds several entries; their conditions need not be identical. Equal entries are not always repeated. Where two headings read alike, the source gives them in different places.

T2 sequence (O42275 24-633): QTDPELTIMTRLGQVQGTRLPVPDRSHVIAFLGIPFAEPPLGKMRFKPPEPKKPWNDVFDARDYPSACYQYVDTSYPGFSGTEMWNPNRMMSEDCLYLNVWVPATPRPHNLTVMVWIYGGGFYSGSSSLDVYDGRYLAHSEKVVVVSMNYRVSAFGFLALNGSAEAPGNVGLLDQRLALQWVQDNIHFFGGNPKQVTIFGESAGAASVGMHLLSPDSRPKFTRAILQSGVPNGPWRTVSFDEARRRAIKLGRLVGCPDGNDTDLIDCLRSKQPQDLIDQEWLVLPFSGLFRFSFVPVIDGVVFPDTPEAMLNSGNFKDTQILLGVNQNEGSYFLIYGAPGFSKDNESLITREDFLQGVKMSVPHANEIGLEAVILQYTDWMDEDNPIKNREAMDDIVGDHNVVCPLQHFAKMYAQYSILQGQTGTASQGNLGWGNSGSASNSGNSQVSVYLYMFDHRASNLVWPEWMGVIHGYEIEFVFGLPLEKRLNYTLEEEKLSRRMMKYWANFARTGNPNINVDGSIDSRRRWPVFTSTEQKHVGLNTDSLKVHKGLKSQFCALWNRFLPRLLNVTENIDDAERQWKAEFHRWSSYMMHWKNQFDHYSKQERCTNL
T1 sequence (P81908 whole entry): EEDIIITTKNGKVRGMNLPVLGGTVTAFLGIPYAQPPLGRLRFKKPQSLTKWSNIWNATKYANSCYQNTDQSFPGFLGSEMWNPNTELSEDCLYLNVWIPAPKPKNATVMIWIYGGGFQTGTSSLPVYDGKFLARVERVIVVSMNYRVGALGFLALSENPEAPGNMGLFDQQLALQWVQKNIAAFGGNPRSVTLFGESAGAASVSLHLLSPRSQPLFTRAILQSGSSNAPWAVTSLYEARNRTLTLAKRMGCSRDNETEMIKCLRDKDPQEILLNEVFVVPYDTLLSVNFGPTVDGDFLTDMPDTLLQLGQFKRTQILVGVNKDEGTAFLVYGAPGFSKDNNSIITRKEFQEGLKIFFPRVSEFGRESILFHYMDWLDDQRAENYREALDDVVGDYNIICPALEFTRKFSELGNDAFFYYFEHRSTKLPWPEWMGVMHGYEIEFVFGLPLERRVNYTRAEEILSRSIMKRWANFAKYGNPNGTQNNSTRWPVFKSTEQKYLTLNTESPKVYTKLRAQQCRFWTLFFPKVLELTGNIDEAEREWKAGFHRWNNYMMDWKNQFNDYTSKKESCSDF

For the compound `O=C(/C=C/c1cc(O)c(O)c(O)c1)NCCCCCC[P+](c1ccccc1)(c1ccccc1)c1ccccc1` [Compound 1], the “SI: selectivity index = IC50 (eeAChE)/IC50 (eqBChE)” value (“SI: selectivity index = IC50” for short) in data set [1] is 7.2. Also, the figures for the IC50 in data set [1] (setting [8]) and in data set [2] (setting [9]) were 410 nM and 2940 nM, respectively.
Consider `O=C(CCc1cc(O)c(O)c(O)c1)NCCCCCC[P+](c1ccccc1)(c1ccccc1)c1ccccc1` [Compound 2], for which, in data set [1], the IC50 (in general, the point on the concentration scale where inhibition reaches its midpoint) is 3160 nM and the “SI: selectivity index = IC50” value stood at 2.1. In data set [2] (IC50 eeAChE, mean (CI 95%)), this compound yielded an IC50 of 6760 nM.
The corresponding values for `O=C(Cc1cc(O)c(O)c(O)c1)NCCCCCC[P+](c1ccccc1)(c1ccccc1)c1ccccc1` [Compound 3] are 4520 nM, 2.0 and 8980 nM.
Regarding `O=C(/C=C/c1ccc(O)c(O)c1)NCCCCCC[P+](c1ccccc1)(c1ccccc1)c1ccccc1` [Compound 4], the “SI: selectivity index = IC50” value in data set [1] is 52.7. Besides, the IC50 was determined as 120 nM in data set [1] (setting [8]) and 6320 nM in data set [2] (setting [9]).
Turning to `O=C(CCc1ccc(O)c(O)c1)NCCCCCC[P+](c1ccccc1)(c1ccccc1)c1ccccc1` [Compound 5], the chemical stability entry in data set [3] is reported as “showed chemical instability”. Further, the IC50 stood at 2520 nM in data set [1] and 1080 nM in data set [2] (IC50 eeAChE, mean (CI 95%)). Also, in data set [1], the “SI: selectivity index = IC50” value is given as 0.4.
Turning to `O=C(Cc1ccc(O)c(O)c1)NCCCCCC[P+](c1ccccc1)(c1ccccc1)c1ccccc1` [Compound 6], in data set [1], the IC50 amounted to 930 nM and the “SI: selectivity index = IC50” value amounted to 4.2. Moreover, it took 3880 nM to reach half-maximal inhibition in data set [2] (IC50 eeAChE, mean (CI 95%)) (IC50).
Turning to `O=C(/C=C/c1cc(O)c(O)c(O)c1)NCCCCCCCCCC[P+](c1ccccc1)(c1ccccc1)c1ccccc1` [Compound 7], the MTT reduction in data set [4] (compound 10 µM) is 75.90 ± 5.25 % ctrl; in data set [4] (compound 50 µM), 80.22 ± 12.76 % ctrl and 80.2 % ctrl; in data set [5] (compound 10 µM), 72.55 ± 2.67 % ctrl; in data set [5] (compound 50 µM), 68.81 ± 0.70 % ctrl and 68.1 % ctrl; in data set [6] (compound 10 µM), 84.24 ± 5.32 % ctrl; in data set [6] (compound 50 µM) it was 81.90 ± 2.81 % ctrl and 81.9 % ctrl. The “SI: selectivity index = IC50” value in data set [1] was found to be 30.8. In addition, the IC50 was found to be 110 nM in data set [1] (setting [8]) and 3390 nM in data set [2] (setting [9]).
With `O=C(CCc1cc(O)c(O)c(O)c1)NCCCCCCCCCC[P+](c1ccccc1)(c1ccccc1)c1ccccc1` [Compound 8], the IC50 in data set [1] amounted to 800 nM; in data set [2] (IC50 eeAChE, mean (CI 95%)), 5750 nM. In addition, the “SI: selectivity index = IC50” value in data set [1] turned out to be 7.2.
For the compound `O=C(Cc1cc(O)c(O)c(O)c1)NCCCCCCCCCC[P+](c1ccccc1)(c1ccccc1)c1ccccc1` [Compound 9], the IC50 in data set [1] was 530 nM; in data set [2] (IC50 eeAChE, mean (CI 95%)), 3350 nM. Further, the “fold enhancement of eeAChE inhibitory activity” value in data set [2] stood at 3 fold.
`O=C(/C=C/c1ccc(O)c(O)c1)NCCCCCCCCCC[P+](c1ccccc1)(c1ccccc1)c1ccccc1` [Compound 10]: the “SI: selectivity index = IC50” value in data set [1] came to 23.9. Besides, the results for the IC50 in data set [1] (setting [8]) and in data set [2] (setting [9]) were 150 nM and 3590 nM, respectively. For the same compound, the “fold enhancement of eeAChE inhibitory activity” value in data set [2] came to 2 fold.
For the compound `O=C(CCc1ccc(O)c(O)c1)NCCCCCCCCCC[P+](c1ccccc1)(c1ccccc1)c1ccccc1` [Compound 11], the cytotoxicity entry in data set [7] was “presented cytotoxicity”. The MTT reduction in data set [4] (compound 10 µM) was 82.87 ± 7.87 % ctrl and 82.9 % ctrl; in data set [5] (compound 10 µM), 66.43 ± 3.45 % ctrl and 66.4 % ctrl; in data set [6] (compound 10 µM) it was 74.97 ± 6.87 % ctrl. Besides, in data set [1], the “SI: selectivity index = IC50” value is recorded as 4.9. The values for the IC50 in data set [1] (setting [8]) and in data set [2] (setting [9]) were 320 nM and 1590 nM, respectively.
Consider `O=C(Cc1ccc(O)c(O)c1)NCCCCCCCCCC[P+](c1ccccc1)(c1ccccc1)c1ccccc1` [Compound 12], for which the IC50 was found to be 240 nM in data set [1] and 2440 nM in data set [2] (IC50 eeAChE, mean (CI 95%)). For the same compound, the “SI: selectivity index = IC50” value in data set [1] worked out at 10.2.
In the case of `N[C@@H](CCC(=O)O)C(=O)O` [Glutamate, L-glutamic acid, reference compound], the entries for the “MTT reduction, aggressor alone” value in data set [6] and in data set [6] (listed as glutamate) were 72.68 ± 2.81 % ctrl and “about 72.7 % ctrl”, respectively.
As for `O=C([O-])CN(CC(=O)[O-])CC(=O)[O-].[Fe+3]` [Iron(III), ferric nitrilotriacetate, reference compound], the “MTT reduction, aggressor alone” value in data set [4] is 63.06 ± 6.25 % ctrl; in data set [4] (listed as iron(III)), approximately 63.1 % ctrl.
For the compound Aβ-amyloid (1–42) [reference compound], the figures for the “MTT reduction, aggressor alone” value in data set [5] and in data set [5] (listed as Aβ42) were 58.73 ± 2.76 % ctrl and approximately 58.7 % ctrl, respectively.
